Results: US20210198318A1, “Methods and Compositions for Treating Diseases and Conditions Associated with Gonadotropin Releasing Hormone Receptor” (The Board of Regents of the University of Oklahoma, priority 2018, published 2021)
Non-standard residues stand in square brackets, D forms with d. Residues, ends and D or L forms follow the SMILES beside them. dPhe(4-Cl) = N[C@H](Cc1ccc(Cl)cc1)C(=O)O; d2Nal = N[C@H](Cc1ccc2ccccc2c1)C(=O)O; dCit = NC(=O)NCCC[C@@H](N)C(=O)O; d3Pal = N[C@H](Cc1cccnc1)C(=O)O

How the values were obtained:
[1] = test system: Abs present in the sera; assay: Mimotope PIN ELISA with sequential GnRHR-ECL2 synthetic peptides and PCOS serum; format: binding, human; conditions: sera 1:200; 8-mer pins offset by two amino acids
Procedure: The peaks represent sites of increased binding by Abs present in the sera. The amino acid sequence for each pin is shown at the bottom. Representative PCOS with 2 dominant peaks. Each color bar represents the time of O.D. reading after addition of chromagen (30, 60, and 90 min).
A Mimotope PIN ELISA assay was performed on 11 PCOS subjects and 5 control subjects using sequential GnRHR-ECL2 synthetic peptides, each 8 amino acid residues in length, and each one different from the preceding peptide by addition of the next two C-terminal residues and removal of the last 2 N-terminal residues (see Table 1). The specific peptides were biochemically bonded to the tip of the pin that is attached to the 96 well plate cover in such a fashion that the peptides were immersed in the buffer/sera (1:200) mixture in the well. After incubation, the pins and wells were washed thoroughly, and the well mixture was then replaced by the anti-human-2nd AB (1:10,000) and incubated and washed again; the colorimetric agent was then added. The wells were sequentially counted at 10 min intervals, and values were compared for analysis of O.D. for each pin. The values and pin sequences are shown with time of reading in color code.

[2] = target: T1, GnRHR (Homo sapiens, UniProt P30968); assay: GnRHR-transfected Chem-1 cell-based calcium flux assay; conditions: for dosage at which the assay responds (relative Ca^2+ induced Fluo-8 NW fluorescence, % of maximal fluorescence): GnRHR-transfected cells, dosage response curve, n=4
T1 construct: host or cells: Chem-1 cells
T1 sequence (P30968 1-328): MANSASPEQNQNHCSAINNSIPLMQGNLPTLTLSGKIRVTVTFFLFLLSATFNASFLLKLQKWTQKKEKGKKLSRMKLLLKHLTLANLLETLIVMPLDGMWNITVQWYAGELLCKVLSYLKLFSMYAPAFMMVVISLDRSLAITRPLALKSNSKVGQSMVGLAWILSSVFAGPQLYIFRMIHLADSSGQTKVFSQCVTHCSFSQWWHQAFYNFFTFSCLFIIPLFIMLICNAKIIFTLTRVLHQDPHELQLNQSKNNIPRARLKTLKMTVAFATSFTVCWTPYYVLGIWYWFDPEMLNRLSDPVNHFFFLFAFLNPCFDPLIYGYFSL
Procedure: Cell-based GnRHR-AAb Activity Assays: Activity of GnRHR AAb in IgG purified from sera of subjects with PCOS and controls were analyzed with a GnRHR-transfected Chem-1 cell-based calcium flux assay (Eurofins Scientific, USA). Briefly, Chem-1 cells were dispensed into 96-well plates and incubated 24 h, after which assay plates were washed sufficiently with Hank's Balanced Salt Solution (HBSS) supplemented with 20 mM HEPES, 2.5 mM Probenecid at pH 7.4 to remove all trace of Media. Component. Serum-derived IgG (0.1 mg/mL) was added in the presence and absence of the non-selective GnRHR blockade. Samples were tested in triplicate. FLUO-8®, AM Ca^2+ dye (Cat No: 21080, AAT Bioquest, Inc., Sunnyvale, Calif.) was prepared by dissolving 1 mg of Fluo-8 NW in […] and applied to the assay plate (Ca^2+ dye at 10 μL/10 mL is sufficient for loading one plate). Excitation wave length was set at 470-495 nm and emission wave length at 515-565 nm for Ca^2+ dyes. Maximal fluorescence signal was obtained by HIDEX Sense reader.
Methods Summary: Infertile PCOS subjects based on Rotterdam criteria and infertile ovulatory controls seen at an academic fertility clinic 2012-2016 were included in the study if they had stored serum prior to beginning treatment. Serum was screened by ELISA for AAbs to GnRHR using a synthetic 28-mer peptide from the ECL2 and ECL 1 of human GnRHR as coating antigen. Optical density (OD) values were read at 405 nm at 60 minutes. Activity of GnRHR AAb in sera and in IgG purified from sera of 4 subjects with PCOS and 4 controls was analyzed with a GnRHR-transfected Chem-1 cell-based calcium flux assay. AAb-specific effect was tested by GnRHR blockade. Group data are presented as mean±SD or percent. Groups were compared using Student t or Pearson chi-squared tests. An ROC curve was used to assess OD as a diagnostic test for PCOS.

Compound	dosage at which the assay responds (relative Ca^2+ induced Fluo-8 NW fluorescence, % of maximal fluorescence) [2]	site of increased binding by Abs in PCOS sera (minipin ELISA peak) [1]	also measured
FSQCVTHC (listed as Homo sapiens) [SEQ ID NO:8]	–	Overlapping Peak 1	–
CC(=O)N[C@H](Cc1ccc2ccccc2c1)C(=O)N[C@H](Cc1ccc(Cl)cc1)C(=O)N[C@H](Cc1cccnc1)C(=O)N[C@@H](CO)C(=O)N[C@@H](Cc1ccc(O)cc1)C(=O)N[C@H](CCCNC(N)=O)C(=O)N[C@@H](CC(C)C)C(=O)N[C@@H](CCCNC(=N)N)C(=O)N1CCC[C@H]1C(=O)N[C@H](C)C(N)=O [cetrorelix] (Ac-[d2Nal][dPhe(4-Cl)][d3Pal]SY[dCit]LRP[dA]-NH2)	–	–	effect on GnRHR activity (relative fluorescence, % of maximum fluorescence) of PCOS subjects ([2]; cetrorelix 10^−5M, 2-hour exposure, samples from PCOS subjects): suppressed the relative fluorescence expressed as % of maximum fluorescence to baseline; effect on GnRHR activity (relative fluorescence, % of maximum fluorescence) of control subjects ([2]; cetrorelix 10^−5M, 2-hour exposure, samples from control subjects): not significantly changed
VTHCSFSQ (listed as Homo sapiens) [SEQ ID NO:6]	–	Overlapping Peak 2	–

The next lines start with results.

dosage at which the assay responds (relative Ca^2+ induced Fluo-8 NW fluorescence, % of maximal fluorescence) [2]	Compound	site of increased binding by Abs in PCOS sera (minipin ELISA peak) [1]	also measured
10^−8 M	CCNC(=O)[C@@H]1CCCN1C(=O)[C@H](CCCNC(=N)N)NC(=O)[C@H](CC(C)C)NC(=O)[C@@H](CC(C)C)NC(=O)[C@H](Cc1ccc(O)cc1)NC(=O)[C@H](CO)NC(=O)[C@H](Cc1c[nH]c2ccccc12)NC(=O)[C@H](Cc1c[nH]cn1)NC(=O)[C@@H]1CCC(=O)N1 [leuprolide]	–	total GnRHR activity of leuprolide in the presence of IgG purified from PCOS subjects versus buffer+leuprolide ([2]; GnRHR transfected cells, n=4, p<0.01): increased the total activity at least in an additive fashion
10^−9 M	human Leutenizing Hormone Releasing Hormone [hLHRH]	–	–
